What was measured:
[1] = molecular target: T1, sigma receptor (Cavia porcellus, UniProt Q60492); test: Evaluation of affinity to sigma receptors ([3H](+)-pentazocine receptor binding experiment); parameters: species or system guinea pig; details: membrane preparation from whole brain of guinea pigs, 25° C., 60 minutes, Dixon plot
T1 construct: A membrane preparation as a sigma receptor obtained from the whole brain of guinea pigs; from tissue; host or cells: guinea pig whole brain membrane preparation
Description: A membrane preparation as a sigma receptor obtained from the whole brain of guinea pigs was used as an assay system; [^3H] (+)-pentazocine was used as a radioactive ligand; (+)-pentazocine was used as a positive substance; and 50 mM Tris hydrochloric acid buffer (pH 7.4) was used as a buffer.
The measurement of the following radioactivity was performed according to a common method after the binding reaction had been carried out at 25° C. for 60 minutes.
The inhibition rate was determined by the equation of “100−binding rate”. The binding rate is represented by the following equation:
The IC50 of the test substance was calculated from a regression equation to the dose-response curve. That is, the ratio y=(B−N)/(B0−N) wherein a value of (B−N) is a specific binding radioactivity in the presence of a test substance, and a value of (B0−N) is a specific binding radioactivity in the absence of a test substance was first subjected to logit conversion and applied to a logit-log model plotted against the common logarithm of the test substance concentration to create a dose-response curve. […] The regression equation to the dose-response curve used is as follows:
wherein Y=logity=ln(y/(1−y), X=log x, and a and b are each a constant, provided that x is a solute concentration of a test substance.
Then, for each concentration of the positive substance, the reaction rate was measured while changing the concentration of the test substance in a range including the IC50 to create the Dixon plot, and the Ki value was calculated from the test substance concentration giving an intersection of these straight lines.

[2] = system: rat cerebral cortex neural cells; test: Evaluation of neurite outgrowth-promoting activity in central neural cells; format: cell-based; details: 48 hours after addition, longest neurite length 60 μm or more, mean±standard error, control 18.0 ± 1.6
Description: The neurite outgrowth-promoting effect of the rat cerebral cortex neural cells on test substances was evaluated using the following method. The cerebral cortex neural cells were isolated from Wistar rats on the 18th day of pregnancy according to the method of Springer Neuroscience Lab Manual. That is, under ether anesthesia, a fetal rat was removed from the uterus of a pregnant rat on day 18, and transferred into a petri dish containing HBSS (manufactured by Gibco, Inc.) on ice. The brain was subdivided into three pieces under a stereoscopic microscope to cut out the cerebral cortex. The cerebral cortex that had been cut out was dispersed with a neural cell dispersion solution (manufactured by Sumitomo Bakelite Co., Ltd.) to prepare rat cerebral cortex cells.
The resulting cerebral cortex cells were subjected to cell culture. Neurobasal medium (manufactured by Gibco, Inc.) supplemented with B27 Supplement (manufactured by Gibco, Inc.; Fin. 2% v/v), L-glutamine (manufactured by IBCO company; Fin. 0.5 mM) and GlutaMax I (manufactured by Gibco, Inc.; Fin. 0.5 mM) was used as the culture medium. The culture conditions were as follows: 5% CO2, 95% air, 100% humidity, and 37° C. The cells were inoculated to polylysine-coated 8-well slides (manufactured by IWAKI company) so as to have about 2×10^4 cells/well.
Compounds (1) to (6) were added as respective test substances (final concentrations: […] and 1.0 μM) to the culture solution at about 3 hours after the cell inoculation, and the culture solution with no additives was used as a control.
At 48 hours after the addition of the compounds, the cells were fixed at room temperature for about 30 minutes using 4% paraformaldehyde (manufactured by Wako Pure Chemical Industries), and incubated with an anti-α-Tublin antibody (Anti-α-Tubulin Alexa Fluor 488 conjugate) recognizing a microtubule protein, at room temperature for one hour. After washing, the nucleus of the whole cell was stained with a nucleic acid-staining agent DAPI. The cells were observed under a fluorescence microscope at a magnification of 20 times. The stained cell image and the nuclear staining image in the same field of vision were imported into a computer as the image. Using an image analysis software (MethaMorph (registered trademark), Molecular Devises), the image imported into the computer, was used to measure the “longest neurite length” that was the length of the longest neurite of individual cell in each field of vision. A cell having a length of the “longest neurite length” of 60 μm or more is defined as a “neurite forming cell” and the neurite forming activity was evaluated by the ratio of the “neurite forming cell” occupied in the number of the cells in the same field of vision. In other words, such evaluation was performed by determining the rate of the neurite forming cells using the following equation:
Rate of neurite forming cells=[Number of neurite forming cells/Number of total cells in the same field of vision]×100
Each numerical value represents mean±standard error.

T1 sequence (Q60492 whole entry): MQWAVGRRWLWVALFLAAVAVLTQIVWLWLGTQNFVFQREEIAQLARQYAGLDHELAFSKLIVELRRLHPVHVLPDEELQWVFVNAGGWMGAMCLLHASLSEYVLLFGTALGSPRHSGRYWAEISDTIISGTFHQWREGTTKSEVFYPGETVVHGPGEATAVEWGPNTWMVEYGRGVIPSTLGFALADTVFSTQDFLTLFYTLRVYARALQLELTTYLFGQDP

Row | Compound | Ki [1] [nM] | Neurite outgrowth-promoting activity (rate of neurite forming cells) ([2]; 0.3 μM) [%] | Neurite outgrowth-promoting activity (rate of neurite forming cells) ([2]; 1.0 μM) [%]
1 | c1ccc(CN2CCN(C3CCCCC3)CC2)cc1 [Compound (1), 1-benzyl-4-cyclohexylpiperazine] | 6.5 | 55.2 ± 1.5 | 54.6 ± 1.5
2 | c1ccc(CCN2CCN(C3CCCCC3)CC2)cc1 [Compound (2), 1-(2-phenylethyl)-4-cyclohexylpiperazine] | 6 | 55.7 ± 2.4 | 55.1 ± 2.3
3 | c1ccc(CCCN2CCN(C3CCCCC3)CC2)cc1 [Compound (3), 1-(3-phenylpropyl)-4-cyclohexylpiperazine] | 6.1 | 49.6 ± 2.7 | 58.4 ± 2.8
4 | c1ccc(CC2CCN(C3CCCCC3)CC2)cc1 [Compound (4), 1-cyclohexyl-4-benzylpiperidine] | 7 | 50.7 ± 2.7 | 51.1 ± 2.9
5 | c1ccc(CCC2CCN(C3CCCCC3)CC2)cc1 [Compound (5), 1-cyclohexyl-4-(2-phenylethyl)piperidine] | 3.9 | 51.2 ± 2.0 | 48.9 ± 1.5
6 | c1ccc(CCCC2CCN(C3CCCCC3)CC2)cc1 [Compound (6), 1-cyclohexyl-4-(3-phenylpropyl)piperidine] | 2.1 | 54.2 ± 1.7 | 46.0 ± 2.4
7 | COc1ccc(CCN2CCN(CCCc3ccccc3)CC2)cc1OC [Reference compound, reference compound] | – | 44.6 ± 2.2 | 58.4 ± 1.8

Reference: patent US20110263862A1, “PIPERIDINE DERIVATIVE, PIPERAZINE DERIVATIVE AND AGENT FOR TREATMENT OF DISEASE INVOLVING CENTRAL NERVOUS SYSTEM DISORDERS” (M'S Science Corporation, priority 2008, published 2011)
